Measured values as given in US20110280940A1, “Di-Vanilloyl And Tri-Vanilloyl Derivatives For Use In Anti-Cancer Therapy” (priority 2008, published 2011).
Where two headings read alike, the source gives them in different places.

Columns and labels:
[1] = tested on: U373-MG glioma cell line; test: Cellular imaging (quantitative videomicroscopy), global growth ratio, U373; assay type: cell-based; details: Homo sapiens, 72 h, read-out: Global Grow Ratio Treated/Ct (GGR T/Ct) determined by Video Quantitative microscopy, U373
[2] = tested on: VM21 melanoma cells; test: MTT colorimetric assay, overall cell growth, VM21; assay type: cell-based, human; details: Homo sapiens, read-out: In Vitro IC50 Growth Inhibitory Values, VM21
Method in brief: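 Cells were seeded, left 24 h at 37 °C, then exposed to compound at molar concentrations from 10^-8 to 10^-4 M for 72 h at 37 °C, in sestuplicate. Mean OD gave % living cells versus untreated control.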

[3] = tested on: A549 non-small-cell-lung cancer cell line; test: Cellular imaging (quantitative videomicroscopy), global growth ratio, A549; assay type: cell-based; details: Homo sapiens, 72 h, read-out: Global Grow Ratio Treated/Ct (GGR T/Ct) determined by Video Quantitative microscopy, A549

IC50 ([2]; MTT, 72 hours of incubation) [µM]	Compound	activity at 37 µM [1] [%]	IC50 ([2]; 72 h) [µM]	activity at 31 µM [1] [%]	activity at 50 µM [3] [%]
	O=C(OCc1cc(COC(=O)c2ccc(O)c(F)c2)cc(COC(=O)c2ccc(O)c(F)c2)c1)c1ccc(O)c(F)c1 [DLT95-F, [3,5-bis[(4-hydroxy-3-fluoro-benzoyl)oxymethyl]phenyl]methyl 4-hydroxy-3-fluoro-benzoate]	40	65		
	O=C(OCc1cc(COC(=O)c2ccc(O)c(Cl)c2)cc(COC(=O)c2ccc(O)c(Cl)c2)c1)c1ccc(O)c(Cl)c1 [DLT95-Cl, [3,5-bis[(4-hydroxy-3-chloro-benzoyl)oxymethyl]phenyl]methyl 4-hydroxy-3-chloro-benzoate]		35	50	
> 1000	COc1cc(C(=O)O)ccc1O [vanillic acid, reference compound]				
71	COc1cc(C(=O)OCCCCCCOC(=O)c2ccc(O)c(OC)c2)ccc1O [DLT11, Hexane-1,6-diyl bis-(4-hydroxy-3-methoxybenzoate)]				20

Compound	IC50 ([2]; MTT, 72 hours of incubation) [µM]	activity at 37 µM [1] [%]	IC50 ([2]; 72 h) [µM]	activity at 31 µM [1] [%]	activity at 50 µM [3] [%]
COc1cc(C(=O)OCCOC(=O)c2ccc(O)c(OC)c2)ccc1O [DLT1, Ethane-1,2-diyl bis-(4-hydroxy-3-methoxybenzoate)]	55				50
